Counter-ions that a name gives are not always drawn.
Assays:
sonic hedgehog pathway [1] = test: Hedgehog reporter assay (gli-luciferase) in TM3 cells; type: cell-based, mouse; conditions: read-out: TM3 Avg. EC50
Excerpt: (§1) Mouse (TM3: mouse Leydig cells; S12: mouse embryonic mesenchymal cells) and human (Daoy: human medulloblastoma cell; HepM: human embryonic palatal mesenchymal cell) cell lines are used to screen small molecules for their ability to modulate the activity of the sonic hedgehog pathway (Table 1, Table 2, and Table 3). Stable hedgehog pathway reporter cell lines are established by specific antibiotic selection following transfection of a reporter plasmid containing a luciferase gene located directly downstream from the gli promoter. Consequently, any observable changes in cellular luciferase activity may be attributed to changes in sonic hedgehog pathway activity in mouse and human cells, respectively, since gli is the major by-product of this pathway. To calculate activity, we generate an eleven point dose curve for each compound using 1:3 dilutions in 96 well assay plates. Each plate tested also contains low and high control to establish maximal pathway activation so to establish/compare a percentage activation of each tested compound (AMAX) on respective plates.
(§2) Stable hedgehog pathway reporter cell lines are established following specific antibiotic selection following transfection of a reporter plasmid
(§3) In short, typically cells are plated in MicroTiter-plates at 10,000-20,000 cells per well, in growth media (containing 10%-20% FBS). After 48-72 hrs (HGL and DGL respectively) the media in the assay plates is switched to low-serum containing media (0.5% FBS). At that time compounds are added (at 1-5 μM) to the assay plates, in the presence or absence of hedgehog protein (octyl-modified version; 1-5 ng/ml). After another 24 hrs of incubation, the media from the assay plates is discarded and replaced with luciferase assay-mix. Subsequently, plates are incubated at RT for ˜15-30 mins and then read in a luminometer. [note: addition of the Hedgehog protein, although not critical, will sensitize the assay allowing the identification of weak actives].

sonic hedgehog pathway [2] = test: Human hedgehog reporter assay HEPM-GliLuc (HGL); type: cell-based; conditions: read-out: HEPM Avg. EC50
Excerpt: as §1, §2, §3

sonic hedgehog pathway [3] = test: Human hedgehog reporter assay Daoy-GliLuc (DGL); type: cell-based; conditions: Daoy human medulloblastoma cells, gli-luciferase reporter; read-out: Daoy Avg. EC50
Excerpt: as §1, §2, §3

[4] = TM3 mouse Leydig cells, gli-luciferase reporter
[5] = HepM human embryonic palatal mesenchymal cells, gli-luciferase reporter

| SMILES | EC50 (sonic hedgehog pathway [1]; [4]) [nM] | EC50 (sonic hedgehog pathway [2]; [5]) [nM] | EC50 (sonic hedgehog pathway [3]) [nM] | EC50 (sonic hedgehog pathway [1]; Mus musculus, Leydig) [nM] | EC50 (sonic hedgehog pathway [2]; Homo sapiens) [nM] |
| --- | --- | --- | --- | --- | --- |
| CNC1CCC(N(Cc2cc(-c3ccnc(C)c3)ccc2OC)C(=O)c2sc3ccccc3c2Cl)CC1 (stereo not shown) [331 (R11), 3-Chloro-benzo[b]thiophene-2-carboxylic acid[2-methoxy-5-(2-methyl-pyridin-4-yl)-benzyl]-(4-methylamino-cyclohexyl)-amide dihydrochloride] | < 50 | < 50 |  |  |  |
| CNC(=O)c1cc(-c2ccc(OC)c(CN(C(=O)c3sc4c(F)ccc(F)c4c3Cl)C3CCC(NC)CC3)c2)ccn1 (stereo not shown) [356 (R21), 4-(3-{[(3-Chloro-4,7-difluoro-benzo[b]thiophene-2-carbonyl)-(4-methylamino-cyclohexyl)-amino]-methyl}-4-methoxy-phenyl)-pyridine-2-carboxylic acid methylamide dihydrochloride] | < 50 | < 50 | < 50 |  |  |
| CNC1CCC(N(Cc2cc(-c3ccc(OC)cc3)ccc2OC)C(=O)c2sc3ccccc3c2Cl)CC1 (stereo not shown) [Compound 305, 3-Chloro-benzo[b]thiophene-2-carboxylic acid (4,4′-dimethoxy-biphenyl-3-ylmethyl)-(4-methylamino-cyclohexyl)-amide hydrochloride] | < 50 | 250 to 1000 | < 50 |  |  |
| CCOc1ccc(-c2ccc(C(C)=O)cc2)cc1CN(C(=O)c1sc2ccccc2c1Cl)C1CCC(NC)CC1 (stereo not shown) [Compound 311, 3-Chloro-benzo[b]thiophene-2-carboxylic acid (4′-acetyl-4-ethoxy-biphenyl-3-ylmethyl)-(4-methylamino-cyclohexyl)-amide hydrochloride] | < 50 | 50 to 250 | < 50 |  |  |
| CNC1CCC(N(Cc2cc(-c3cncnc3)ccc2OC)C(=O)c2sc3ccccc3c2Cl)CC1 (stereo not shown) [Compound 324 (R20), 3-Chloro-benzo[b]thiophene-2-carboxylic acid (2-methoxy-5-pyrimidin-5-yl-benzyl)-(4-methylamino-cyclohexyl)-amide dihydrochloride] | 50 to 250 | 50 to 250 | < 50 |  |  |
| CCOc1ccc(-c2cnc(N)nc2)cc1CN(C(=O)c1sc2ccccc2c1Cl)[C@H]1CC[C@H](NC)CC1 [Compound 325, 3-Chloro-benzo[b]thiophene-2-carboxylic acid[5-(2-amino-pyrimidin-5-yl)-2-ethoxy-benzyl]-(4-methylamino-cyclohexyl)-amide dihydrochloride] | 250 to 1000 | 50 to 250 | < 50 |  |  |
| CCOc1ccc(-c2cncnc2)cc1CN(C(=O)c1sc2ccccc2c1Cl)C1CCC(NC)CC1 (stereo not shown) [Compound 326, 3-Chloro-benzo[b]thiophene-2-carboxylic acid (2-ethoxy-5-pyrimidin-5-yl-benzyl)-(4-methylamino-cyclohexyl)-amide dihydrochloride] | 50 to 250 | 50 to 250 | < 50 |  |  |
| CCOc1ccc(-c2cccc(C#N)c2)cc1CN(C(=O)c1sc2ccccc2c1Cl)C1CCC(NC)CC1 (stereo not shown) [Compound 328, 3-Chloro-benzo[b]thiophene-2-carboxylic acid (3′-cyano-4-ethoxy-biphenyl-3-ylmethyl)-(4-methylamino-cyclohexyl)-amide hydrochloride] | < 50 | 50 to 250 | < 50 |  |  |
| CNC1CCC(N(Cc2cc(-c3cnccn3)ccc2OC)C(=O)c2sc3ccccc3c2Cl)CC1 (stereo not shown) [Compound 330 (R22), 3-Chloro-benzo[b]thiophene-2-carboxylic acid (2-methoxy-5-pyrazin-2-yl-benzyl)-(4-methylamino-cyclohexyl)-amide bis(trifluoroacetate)] | 50 to 250 | 50 to 250 | < 50 |  |  |
| CNC1CCC(N(Cc2cc(-c3cccc(C#N)c3)ccc2OC)C(=O)c2sc3c(F)ccc(F)c3c2Cl)CC1 (stereo not shown) [Compound 337, 3-Chloro-4,7-difluoro-benzo[b]thiophene-2-carboxylic acid (3′-cyano-4-methoxy-biphenyl-3-ylmethyl)-(4-methylamino-cyclohexyl)-amide hydrochloride] | < 50 | < 50 |  |  |  |
| CNC1CCC(N(Cc2cc(-c3ccncc3)ccc2OC)C(=O)c2sc3ccccc3c2Cl)CC1 (stereo not shown) [Compound 339 (R12), 3-Chloro-benzo[b]thiophene-2-carboxylic acid (2-methoxy-5-pyridin-4-yl-benzyl)-(4-methylamino-cyclohexyl)-amide dihydrochloride] | < 50 | < 50 |  |  |  |
| CNC1CCC(N(Cc2cc(-c3ccc(CCl)cc3)ccc2OC)C(=O)c2sc3ccccc3c2Cl)CC1 (stereo not shown) [Compound 340, 3-Chloro-benzo[b]thiophene-2-carboxylic acid (4′-chloromethyl-4-methoxy-biphenyl-3-ylmethyl)-(4-methylamino-cyclohexyl)-amide hydrochloride] | < 50 | < 50 | < 50 |  |  |
| CCOc1ccc(-c2ccc(C(=O)C(F)(F)F)cc2)cc1CN(C(=O)c1sc2c(F)ccc(C)c2c1Cl)[C@H]1CC[C@@H](NC)CC1 [Compound 341, 3-Chloro-4,7-difluoro-benzo[b]thiophene-2-carboxylic acid[4-ethoxy-4′-(2,2,2-trifluoro-acetyl)-biphenyl-3-ylmethyl]-(4-methylamino-cyclohexyl)-amide trifluoroacetate] | < 50 | 50 to 250 |  |  |  |
| CNC1CCC(N(Cc2cc(-c3cncnc3)ccc2OC)C(=O)c2sc3c(F)ccc(F)c3c2Cl)CC1 (stereo not shown) [Compound 343 (R15), 3-Chloro-4,7-difluoro-benzo[b]thiophene-2-carboxylic acid(2-methoxy-5-pyrimidin-5-yl-benzyl)-(4-methylamino-cyclohexyl)-amide dihydrochloride] | < 50 | < 50 | < 50 |  |  |
| CNC1CCC(N(Cc2cc(-c3cnccn3)ccc2OC)C(=O)c2sc3c(F)ccc(F)c3c2Cl)CC1 (stereo not shown) [Compound 344 (R14), 3-Chloro-4,7-difluoro-benzo[b]thiophene-2-carboxylic acid(2-methoxy-5-pyrazin-2-yl-benzyl)-(4-methylamino-cyclohexyl)-amide dihydrochloride] | < 50 | < 50 | < 50 |  |  |
| CNC1CCC(N(Cc2cc(-c3ccc(C#N)cc3)ccc2OC)C(=O)c2sc3c(F)ccc(F)c3c2Cl)CC1 (stereo not shown) [Compound 351, 3-Chloro-4,7-difluoro-benzo[b]thiophene-2-carboxylic acid (4′-cyano-4-methoxy-biphenyl-3-ylmethyl)-(4-methylamino-cyclohexyl)-amide hydrochloride] | < 50 | < 50 |  |  |  |
| CNC1CCC(N(Cc2cc(-c3cc(C)nc(C)c3)ccc2OC)C(=O)c2sc3ccccc3c2Cl)CC1 (stereo not shown) [Compound R1, 3-Chloro-benzo[b]thiophene-2-carboxylic acid[5-(2,6-dimethyl-pyridin-4-yl)-2-methoxy-benzyl]-(4-methylamino-cyclohexyl)-amide dihydrochloride] | < 50 | 50 to 250 |  |  |  |
| CCOc1ccc(-c2ccc(C#N)cc2)cc1CN(C(=O)c1sc2ccccc2c1Cl)C1CCC(NC)CC1 (stereo not shown) [Compound R2, 3-Chloro-benzo[b]thiophene-2-carboxylic acid (4′-cyano-4-ethoxy-biphenyl-3-ylmethyl)-(4-methylamino-cyclohexyl)-amide hydrochloride] | 50 to 250 | 50 to 250 |  |  |  |
| CCOc1ccc(-c2ccc(C)nc2)cc1CN(C(=O)c1sc2ccccc2c1Cl)C1CCC(NC)CC1 (stereo not shown) [Compound R4, 3-Chloro-benzo[b]thiophene-2-carboxylic acid[2-ethoxy-5-(6-methyl-pyridin-3-yl)-benzyl]-(4-methylamino-cyclohexyl)-amide dihydrochloride] | 50 to 250 | 50 to 250 |  |  |  |
| CNC1CCC(N(Cc2cc(-c3ccnc(C(=O)O)c3)ccc2OC)C(=O)c2sc3c(F)ccc(F)c3c2Cl)CC1 (stereo not shown) [Compound R6, 4-(3-{[(3-Chloro-4,7-difluoro-benzo[b]thiophene-2-carbonyl)-(4-methylamino-cyclohexyl)-amino]-methyl}-4-methoxy-phenyl)-pyridine-2-carboxylic acid bis(trifluoroacetate)] | 50 to 250 | 50 to 250 |  |  |  |
| CNC1CCC(N(Cc2cc(-c3ccc(S(C)(=O)=O)cc3)ccc2OC)C(=O)c2sc3ccccc3c2Cl)CC1 (stereo not shown) [Compound R7, 3-Chloro-benzo[b]thiophene-2-carboxylic acid (4′-methanesulfonyl-4-methoxy-biphenyl-3-ylmethyl)-(4-methylamino-cyclohexyl)-amide hydrochloride] |  |  |  | < 50 | < 50 |
| CN[C@H]1CC[C@@H](N(Cc2cc(-c3ccc(C(C)=O)cc3)ccc2OC)C(=O)C2=C(Cl)c3c(F)ccc(F)c3C2)CC1 [Compound R8, 3-Chloro-4,7-difluoro-benzo[b]thiophene-2-carboxylic acid(4′-carbamoyl-4-methoxy-biphenyl-3-ylmethyl)-(4-methylamino-cyclohexyl)-amide hydrochloride] | < 50 | < 50 |  |  |  |

From patent publication US20120245184A1 (Aderans Research Institute, Inc., priority 2006, published 2012)
